Laboratory results taken from US20200361871A1 (Enterprise Therapeutics Ltd., priority 2018, published 2020).

Molecular target: human TMEM16A (TMEM16Aabc variant) (Homo sapiens, UniProt Q5XXA6, DEL476-501, form not given)
Assay: Automated whole-cell patch clamp (Qpatch) TMEM16A potentiator assay in FRT cells stably expressing human TMEM16A
Format: cell-based
Settings: for % Potentiation @ 3.33 μM Avg: 3.33 μM solution of test compound, percentage increase of baseline TMEM16A current; for EC50: calculated EC50, Qpatch TMEM16A current at +70 mV
Method in brief: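 Potentiation was read as the rise in peak +70 mV current over baseline (%), from cumulative 5-min additions of compound. Recordings used whole-cell automated patch of FRT cells stably carrying human TMEM16Aabc, with pipette Ca2+ buffered to give ~20% maximal current. EC50 and efficacy came from concentration-response fits.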

Sequence of human TMEM16A (TMEM16Aabc variant) (Q5XXA6 with tags, fused parts or gaps DEL476-501): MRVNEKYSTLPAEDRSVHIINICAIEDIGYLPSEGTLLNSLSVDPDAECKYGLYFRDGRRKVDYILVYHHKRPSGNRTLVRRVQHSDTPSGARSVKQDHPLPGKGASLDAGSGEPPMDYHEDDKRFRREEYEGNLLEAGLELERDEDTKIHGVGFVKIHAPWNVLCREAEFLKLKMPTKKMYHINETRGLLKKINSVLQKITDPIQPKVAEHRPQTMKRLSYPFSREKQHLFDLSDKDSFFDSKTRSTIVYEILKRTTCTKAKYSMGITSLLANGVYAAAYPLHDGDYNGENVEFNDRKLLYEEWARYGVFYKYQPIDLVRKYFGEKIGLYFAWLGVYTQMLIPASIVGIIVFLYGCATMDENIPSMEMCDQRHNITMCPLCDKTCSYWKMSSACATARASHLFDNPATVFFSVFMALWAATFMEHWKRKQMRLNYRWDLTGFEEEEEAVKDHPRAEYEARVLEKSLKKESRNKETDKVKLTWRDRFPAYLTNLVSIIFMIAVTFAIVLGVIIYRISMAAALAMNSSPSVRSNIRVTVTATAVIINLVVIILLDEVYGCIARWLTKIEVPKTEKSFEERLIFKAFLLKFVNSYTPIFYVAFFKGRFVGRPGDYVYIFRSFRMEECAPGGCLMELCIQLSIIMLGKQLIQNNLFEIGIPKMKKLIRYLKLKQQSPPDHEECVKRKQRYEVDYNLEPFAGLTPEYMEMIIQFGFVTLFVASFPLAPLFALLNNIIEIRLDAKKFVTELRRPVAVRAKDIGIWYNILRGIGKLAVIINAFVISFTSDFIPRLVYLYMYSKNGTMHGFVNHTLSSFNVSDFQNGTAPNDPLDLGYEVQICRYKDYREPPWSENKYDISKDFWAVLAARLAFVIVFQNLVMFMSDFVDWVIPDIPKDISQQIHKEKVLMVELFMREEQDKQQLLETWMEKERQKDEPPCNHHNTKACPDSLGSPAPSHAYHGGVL

SMILES | % Potentiation @ 3.33 μM Avg [%] | EC50 [nM]
N#CC1(NC(=O)c2cc(NC(=O)Cc3ccc(Cl)cc3)ccn2)CC1 [Example 23, 4-[[2-(4-Chlorophenyl)acetyl]amino]-N-(1-cyanocyclopropyl)pyridine-2-carboxamide] | 93 | –
CC(C)(C)NC(=O)c1cc(NC(=O)Cc2ccccc2C(F)(F)F)ccn1 [Example 23.12, N-tert-Butyl-4-[[2-[2-(trifluoromethyl)phenyl]acetyl]amino]pyridine-2-carboxamide] | 197 | 330
O=C(Cc1cc(Cl)ccc1O)Nc1ccnc(C(=O)NC2(CO)CCC2)c1 [Example 35.25, 4-[[2-(5-Chloro-2-hydroxy-phenyl)acetyl]amino]-N-[1-(hydroxymethyl)cyclobutyl]pyridine-2-carboxamide] | 126 | 100
O=C(Cc1ccccc1Cl)Nc1ccnc(C(=O)NC2CC2(F)F)c1 (centres unmarked) [Example 30.6, 4-[[2-(2-Chlorophenyl)acetyl]amino]-N-(2,2-difluorocyclopropyl)pyridine-2-carboxamide] | 80 | –
N#CC1(NC(=O)c2cc(NC(=O)Cc3ccc4ncccc4c3)ccn2)CCOCC1 [Example 23.16, N-(4-Cyanotetrahydropyran-4-yl)-4-[[2-(6-quinolyl)acetyl]amino]pyridine-2-carboxamide] | 68 | 1400
COc1cc(CCC(=O)Nc2ccnc(C(=O)NC(C)(C)C#N)c2)ccn1 [Example 83.13, N-(1-Cyano-1-methyl-ethyl)-4-[3-(2-methoxy-4-pyridyl)propanoylamino]pyridine-2-carboxamide] | -1 | –
CC(=O)NCCC(C)(C)NC(=O)c1cc(NC(=O)Cc2cc(Cl)ccc2O)ccn1 [Example 51, N-(3-Acetamido-1,1-dimethyl-propyl)-4-[[2-(5-chloro-2-hydroxy-phenyl)acetyl]amino]pyridine-2-carboxamide] | 54 | –
CC(C)(C)NC(=O)c1cc(NC(=O)Cc2cccnc2Cl)ccn1 [Example 5.16, N-tert-Butyl-4-[[2-(2-chloro-3-pyridyl)acetyl]amino]pyridine-2-carboxamide] | 110 | –
CC(C)(C)NC(=O)c1cc(NC(=O)[C@@H]2CCc3ccccc32)ccn1 (single isomer, unassigned) [Example 21b, N-tert-Butyl-4-[[(1R)-indane-1-carbonyl]amino]pyridine-2-carboxamide or N-tert-Butyl-4-[[(1S)-indane-1-carbonyl]amino]pyridine-2-carboxamide] | 164 | 1080
CC(C)(C)NC(=O)c1cc(NC(=O)NCc2ccc(Cl)cc2)ccn1 [Example 64.8, N-tert-butyl-4-[(4-chlorophenyl)methylcarbamoylamino]pyridine-2-carboxamide] | 97 | –
C#CC(C)(C)NC(=O)c1cc(NC(=O)Cc2ccccc2C(F)(F)F)ccn1 [Example 5.38, N-(1,1-Dimethylprop-2-ynyl)-4-[[2-[2-(trifluoromethyl)phenyl]acetyl]amino]pyridine-2-carboxamide] | 231 | 150
CC(CO)(CO)NC(=O)c1cc(NC(=O)Cc2cc(Cl)ccc2O)ccn1 [Example 35.4, 4-[[2-(5-Chloro-2-hydroxy-phenyl)acetyl]amino]-N-[2-hydroxy-1-(hydroxymethyl)-1-methyl-ethyl]pyridine-2-carboxamide] | 138 | –
CC(C)(C)OC(=O)N1CCCC(NC(=O)c2cccc(NC(=O)Cc3cc(Cl)ccc3O)c2)C1 (centres unmarked) [Example 8, tert-Butyl-3-[[3-[[2-(5-chloro-2-hydroxy-phenyl)acetyl]amino]benzoyl]amino] piperidine-1-carboxylate] | 88 | 3020
O=C(Cc1cc(F)ccc1F)Nc1ccnc(C(=O)NC23CCC(F)(C2)C3)c1 [Example 77.1, 4-[[2-(2,5-Difluorophenyl)acetyl]amino]-N-(4-fluoro-1-bicyclo[2.1.1]hexanyl) pyridine-2-carboxamide] | 151 | 540
CC(C)(C)NC(=O)c1cc(NC(=O)Cc2cc(Cl)ccc2O)ncn1 [Example 85, N-tert-Butyl-6-[[2-(5-chloro-2-hydroxy-phenyl)acetyl]amino] pyrimidine-4-carboxamide] | 155 | 350
CC(C)(C)NC(=O)c1cc(NC(=O)Cc2c[nH]c3ccccc23)ccn1 [Example 5.6, N-tert-Butyl-4-[[2-(1H-indol-3-yl)acetyl]amino]pyridine-2-carboxamide] | 101 | 150
CC(C)(C)NC(=O)c1nccc(NC(=O)Cc2cc(Cl)ccc2O)c1F [Example 28.1, N-tert-Butyl-4-[[2-(5-chloro-2-hydroxy-phenyl)acetyl]amino]-3-fluoro-pyridine-2-carboxamide] | 68 | –
O=C(Cc1cc(Cl)ccc1O)Nc1ccnc(C(=O)NCc2ccncc2)c1 [Example 32.4, 4-[[2-(5-Chloro-2-hydroxy-phenyl)acetyl]amino]-N-(4-pyridylmethyl)pyridine-2-carboxamide] | 187 | 710

SMILES | % Potentiation @ 3.33 μM Avg [%] | EC50 [nM]
CC(C)(C)NC(=O)c1cc(NC(=O)NCc2ccccc2O)ccn1 [Example 65.2, N-tert-Butyl-4-[(2-hydroxyphenyl)methylcarbamoylamino]pyridine-2-carboxamide] | 73 | 480
CC(C)(C#N)NC(=O)c1cc(NC(=O)c2ccccc2-n2cccn2)ccn1 [Example 83.15, N-(1-Cyano-1-methyl-ethyl)-4-[(2-pyrazol-1-ylbenzoyl)amino]pyridine-2-carboxamide] | -10 | –
N#CC1(NC(=O)c2cc(NC(=O)Cc3ccccc3Cl)ccn2)CCCC1 [Example 30.12, 4-[[2-(2-Chlorophenyl)acetyl]amino]-N-(1-cyanocyclopentyl)pyridine-2-carboxamide] | 314 | –
CC(C)(C)NC(=O)c1cc(F)cc(NC(=O)Cc2cc(Cl)ccc2O)c1 [Example 18, N-tert-Butyl-3-[[2-(5-chloro-2-hydroxy-phenyl)acetyl]amino]-5-fluoro-benzamide] | 405 | 450
COCc1cccc(CC(=O)Nc2ccnc(C(=O)NC(C)(C)C)c2)c1 [Example 69, N-tert-Butyl-4-[[2-[3-(methoxymethyl)phenyl]acetyl]amino]pyridine-2-carboxamide] | 47 | –
C#CC(C)(C)NC(=O)c1cc(NC(=O)CC(C)(C)C)ccn1 [Example 22.1, 4-(3,3-Dimethylbutanoylamino)-N-(1,1-dimethylprop-2-ynyl)pyridine-2-carboxamide] | 114 | –
CC(C)(C)NC(=O)c1cc(NC(=O)Cc2ccco2)ccn1 [Example 5.4, N-tert-Butyl-4-[[2-(2-furyl)acetyl]amino] pyridine-2-carboxamide] | 57 | –
CC(C)(CCNCC(F)(F)F)NC(=O)c1cc(NC(=O)Cc2cc(Cl)ccc2O)ccn1 [Example 43, 4-[[2-(5-Chloro-2-hydroxy-phenyl)acetyl]amino]-N-[1,1-dimethyl-3-(2,2,2-trifluoroethylamino)propyl]pyridine-2-carboxamide] | 174 | 700
CC(C)(C)NC(=O)c1cccc(NC(=O)Cc2cc(F)cc(F)c2O)c1 [Example 2.9, N-tert-Butyl-3-[[2-(3,5-difluoro-2-hydroxy-phenyl)acetyl]amino] benzamide] | 148 | 990
CC1(NC(=O)c2cc(NC(=O)Cc3cc(Cl)ccc3O)ccn2)CCCC1 [Example 38, 4-[[2-(5-Chloro-2-hydroxy-phenyl)acetyl]amino]-N-(1-methylcyclopentyl)pyridine-2-carboxamide] | 307 | 50
CC(C)(C)NC(=O)c1cc(NC(=O)Cc2ccc(Cl)c(O)c2)ccn1 [Example 3.14b, N-tert-Butyl-4-[[2-(4-chloro-3-hydroxy-phenyl)acetyl]amino]pyridine-2-carboxamide] | 251 | 40
CC(C)(C#N)NC(=O)c1cc(NC(=O)c2ccnn2CC(F)(F)F)ccn1 [Example 83.19, N-(1-Cyano-1-methyl-ethyl)-4-[[2-(2,2,2-trifluoroethyl)pyrazole-3-carbonyl]amino]pyridine-2-carboxamide] | 28 | –
N#CC1(NC(=O)c2cc(NC(=O)Cc3cc(F)ccc3O)ccn2)CCOCC1 [Example 48.1, N-(4-Cyanotetrahydropyran-4-yl)-4-[[2-(5-fluoro-2-hydroxy-phenyl)acetyl]amino] pyridine-2-carboxamide] | 185 | 420
C#CC(C)(C)NC(=O)c1cc(NC(=O)Cc2cccc3[nH]ncc23)ccn1 [Example 79.2, N-(1,1-Dimethylprop-2-ynyl)-4-[[2-(1H-indazol-4-yl)acetyl]amino]pyridine-2-carboxamide] | 211 | –
C[C@H](NC(=O)Nc1ccnc(C(=O)NC(C)(C)C)c1)c1ccccc1 [Example 64.4, N-tert-Butyl-4-[[(1S)-1-phenylethyl]carbamoylamino]pyridine-2-carboxamide] | 2 | –
C#CC(C)(C)NC(=O)c1cc(NC(=O)Cc2cccc(C(F)(F)F)c2)ccn1 [Example 5.37, N-(1,1-Dimethylprop-2-ynyl)-4-[[2-[3-(trifluoromethyl)phenyl]acetyl]amino]pyridine-2-carboxamide] | 117 | 150
CC(C)(C#N)NC(=O)c1cc(NC(=O)C2(Cc3ccccc3)CC2)ccn1 [Example 83.11, 4-[(1-Benzylcyclopropanecarbonyl)amino]-N-(1-cyano-1-methyl-ethyl)pyridine-2-carboxamide] | 13 | –
